Results on 26 molecules are retold here after ChEMBL document CHEMBL1126992, “The synthesis and biochemical evaluation of new A1 selective adenosine receptor agonists containing 6-hydrazinopurine moieties” (Bioorg Med Chem Lett, 1993).

Data set [1] deals with Adenosine A2 receptor (Rattus norvegicus, UniProt P29276+P30543). In words: Tested for inhibition of adenosine A2 receptor binding to rat brain.
For data set [2], the target named is T1, Adenosine receptor A1 (Rattus norvegicus, UniProt P25099).
T1 sequence (P25099 whole entry): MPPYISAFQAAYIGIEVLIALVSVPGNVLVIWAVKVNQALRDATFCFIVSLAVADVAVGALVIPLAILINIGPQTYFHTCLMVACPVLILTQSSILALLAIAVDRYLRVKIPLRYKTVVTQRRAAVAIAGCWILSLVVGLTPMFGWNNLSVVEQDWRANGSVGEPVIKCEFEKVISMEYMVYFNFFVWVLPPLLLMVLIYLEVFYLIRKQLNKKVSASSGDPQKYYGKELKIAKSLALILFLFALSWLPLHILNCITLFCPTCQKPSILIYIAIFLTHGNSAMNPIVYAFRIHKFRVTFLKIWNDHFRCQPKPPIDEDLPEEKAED
As to the kind of experiment: Tested for inhibition of adenosine A1 receptor binding to rat brain.

The nature of data set [3]: Partition coefficient (logP). It is filed as physicochemical. Conditions: octanol/water.
The species named for data set [4] is Cavia porcellus. In words: Tested for agonistic potency to inhibit contractile force in isolated guinea pig atria. It is filed as functional.
Data set [5] is filed under the species Cavia porcellus. In words: Tested for agonistic potency to inhibit stimulated cAMP accumulation in isolated guinea pig heart. Type of data set: functional. On the technique in general: Cyclic AMP is a second messenger, typically raised through Gs and lowered through Gi signalling.

The structures appear in SMILES notation.

Turning to `Nc1nc(NN2CCCCC2)c2ncn([C@@H]3O[C@H](CO)[C@@H](O)[C@H]3O)c2n1`, the figures for the Ki in data set [1] and in data set [2] were 3320 nM and 30 nM, respectively. For the same molecule, the logP (usually a log measure of how a compound divides between an organic and an aqueous phase) in data set [3] was -0.55.
With `OC[C@H]1O[C@@H](n2cnc3c(NC4CCCC4)nc(Cl)nc32)[C@H](O)[C@@H]1O`, the logP in data set [3] was found to be 2.07.
Regarding `OC[C@H]1O[C@@H](n2cnc3c(NN4CCOCC4)nc(Cl)nc32)[C@H](O)[C@@H]1O`, the Ki (as a rule, the equilibrium dissociation constant of an inhibitor or competing ligand from its target) in data set [1] was 1040 nM; in data set [2], 13.3 nM. Further, the logP in data set [3] worked out at 0.11.
As to `OC[C@H]1O[C@@H](n2cnc3c(NN4CCCCC4)ncnc32)[C@H](O)[C@@H]1O`, the Ki in data set [1] is more than 10000 nM; in data set [2] it was more than 3000 nM. The molecule also displayed a logP in data set [3] of 1.28.
Consider `OC[C@H]1O[C@@H](n2cnc3c(NN4CCCCC4)nc(F)nc32)[C@H](O)[C@@H]1O`, for which the Ki in data set [1] was determined as 1050 nM; in data set [2], 3.6 nM. Moreover, the figures for the IC50 in data set [4] and in data set [5] were 1290 nM and 3.8 nM, respectively. The molecule further came in with a logP in data set [3] of 0.35.
Consider `COC[C@@H]1CCCN1Nc1nc(Cl)nc2c1ncn2[C@@H]1O[C@H](CO)[C@@H](O)[C@H]1O`, for which the Ki in data set [1] came out at 564 nM; in data set [2], 9.9 nM. Besides, in data set [3], the lipophilicity (logP) stood at 0.32.
On the same counts, the results for `CSc1nc(NN2CCCCC2)c2ncn([C@@H]3O[C@H](CO)[C@@H](O)[C@H]3O)c2n1` are 2825 nM, 390 nM and 0.89.
As for `OC[C@H]1O[C@@H](n2cnc3c(NN4CCC(c5ccccc5)CC4)nc(Cl)nc32)[C@H](O)[C@@H]1O`, the Ki was 1200 nM in data set [1] and 11 nM in data set [2]. The IC50 (usually the concentration that inhibits the measured activity by half) in data set [4] came to 320 nM; in data set [5] it was 2.5 nM. Moreover, the logP in data set [3] is 2.36.
The matching figures for `OC[C@H]1O[C@@H](n2cnc3c(NN4CCCCC4)nc(Cl)nc32)[C@H](O)[C@@H]1O`: 1485 nM, 4.2 nM, 580 nM, 2.1 nM and 0.79.
As for `CC1CCCC(C)N1Nc1nc(Cl)nc2c1ncn2[C@@H]1O[C@H](CO)[C@@H](O)[C@H]1O` (stereo partly drawn), the Ki worked out at 33 nM in data set [1] and 4 nM in data set [2]. The logP in data set [3] was 1.38.
The matching figures for `COC[C@H]1CCCN1Nc1nc(Cl)nc2c1ncn2[C@@H]1O[C@H](CO)[C@@H](O)[C@H]1O`: 459 nM, 10.9 nM and 0.32.
On to `OC[C@H]1O[C@@H](n2cnc3c(NN4CCC(Sc5ccccc5)CC4)nc(Cl)nc32)[C@H](O)[C@@H]1O`, for which the results for the Ki in data set [1] and in data set [2] were 470 nM and 0.9 nM, respectively. Besides, the IC50 in data set [4] came to 640 nM; in data set [5], 0.3 nM. In data set [3], this molecule returned a logP of 2.62.
On the same counts, the results for `OC[C@H]1O[C@@H](n2cnc3c(NN4CCC(Oc5ccccc5)CC4)nc(Cl)nc32)[C@H](O)[C@@H]1O` are 1100 nM, 1.4 nM, 190 nM, 0.03 nM and 2.05.
On to `OC[C@H]1O[C@@H](n2cnc3c(NN4CCCCC4)nc(Br)nc32)[C@H](O)[C@@H]1O`, for which the Ki is 1520 nM in data set [1] and 9.3 nM in data set [2]. Also, the logP in data set [3] stood at 0.89.
As to `OC[C@H]1O[C@@H](n2cnc3c(NN4CCCCCC4)nc(Cl)nc32)[C@H](O)[C@@H]1O`, the figures for the Ki in data set [1] and in data set [2] were 1130 nM and 9.3 nM, respectively. In data set [3], this molecule returned a logP of 1.42.
In the case of `O=S(=O)(c1ccccc1)C1CCN(Nc2nc(Cl)nc3c2ncn3[C@@H]2O[C@H](CO)[C@@H](O)[C@H]2O)CC1`, the results for the Ki in data set [1] and in data set [2] were 220 nM and 17 nM, respectively. In addition, the figures for the IC50 in data set [4] and in data set [5] were 320 nM and 0.7 nM, respectively.
Consider `CN1CCN(Nc2nc(Cl)nc3c2ncn3[C@@H]2O[C@H](CO)[C@@H](O)[C@H]2O)CC1`, for which the Ki is more than 30000 nM in data set [1] and 184 nM in data set [2]. This molecule returned a logP in data set [3] of 0.11.
On the same counts, the results for `OC[C@H]1O[C@@H](n2cnc3c(NN4CCN(c5ccccc5)CC4)nc(Cl)nc32)[C@H](O)[C@@H]1O` are 5571 nM, 55 nM and 1.42.
As to `OC[C@H]1O[C@@H](n2cnc3c(NN4CC=C(c5ccccc5)CC4)nc(Cl)nc32)[C@H](O)[C@@H]1O`, the Ki in data set [1] is 638 nM; in data set [2], 6.1 nM. The IC50 worked out at 2900 nM in data set [4] and 1.1 nM in data set [5]. The logP in data set [3] was found to be 2.28.
In the case of `CCCOc1nc(NN2CCCCC2)c2ncn([C@@H]3O[C@H](CO)[C@@H](O)[C@H]3O)c2n1`, the Ki in data set [1] stood at 2700 nM; in data set [2], 400 nM.
As to `OC[C@H]1O[C@@H](n2cnc3c(NN4CCCC4)nc(I)nc32)[C@H](O)[C@@H]1O`, the results for the Ki in data set [1] and in data set [2] were 57000 nM and 13000 nM, respectively. In data set [3], this molecule returned a logP of 1.42.
On the same counts, the results for `OC[C@H]1O[C@@H](n2cnc3c(NN4CCCCC4c4ccccc4)nc(Cl)nc32)[C@H](O)[C@@H]1O` (stereo partly drawn) are 17 nM, 34 nM and 2.25.
Regarding `OC[C@H]1O[C@@H](n2cnc3c(NN4CCCC(Sc5ccccc5)C4)nc(Cl)nc32)[C@H](O)[C@@H]1O` (mixture of isomers), the Ki came to 1380 nM in data set [1] and 13 nM in data set [2]. For the same molecule, the log partition coefficient (logP) in data set [3] was found to be 2.89.
As for `OC[C@H]1O[C@@H](n2cnc3c(NN4CCCC(O)C4)nc(Cl)nc32)[C@H](O)[C@@H]1O` (mixture of isomers), the Ki in data set [1] is 720 nM; in data set [2] it was 11 nM. Besides, the IC50 in data set [4] worked out at 470 nM; in data set [5], 4.6 nM. The molecule further yielded a lipophilicity (logP) in data set [3] of -0.82.
Consider `OC[C@H]1O[C@@H](n2cnc3c(NN4CCCC(Oc5ccccc5)C4)nc(Cl)nc32)[C@H](O)[C@@H]1O` (mixture of isomers), for which the Ki in data set [1] was 1733 nM; in data set [2] it was 15 nM. The results for the IC50 in data set [4] and in data set [5] were 4500 nM and 4.8 nM, respectively. In data set [3], the logP turned out to be 1.88.
Regarding `OC[C@H]1O[C@@H](n2cnc3c(NC4CCCC4)ncnc32)[C@H](O)[C@@H]1O` [N6-CYCLOPENTYLADENOSINE], in data set [1], the Ki worked out at 321 nM. Also, the IC50 was 420 nM in data set [4] and 0.6 nM in data set [5]. Moreover, in data set [3], the logP was determined as 0.72.
